According to US7615542B2, “Dioxolane thymine and combinations for use against 3TC/AZT resistant strains of HIV” (priority 2002, dated 2009):

Assays:
HIV-1 isolate LAI = assay: Anti-HIV efficacy in PBMC, isolate LAI; assay type: cell-based; details: for IC50: Human immunodeficiency virus 1, PBMC, read-out: Drug (IC50)
Protocol: (§1) The following Tables 2 and 3, set forth below, describe the HIV resistant strains genotypically (Table 2) and phenotypically (Table 3) which were used in the experiments to test activity.
(§2) Each of the three test compounds were tested for efficacy against the various strains of HIV-1. Anti-HIV efficacy was evaluated in PBMC, reverse transcriptase activity was tested in a microtiter plate-based reverse transciptase assay (Buckeit, et al., AIDS Research and Human Retroviruses, 7:295-302, 1991), MTS staining was used for determining cell viability. […] Table 5 presents a resistance phenotype comparison for compounds of the present invention versus the compounds 3TC and AZT.
(§3) The compounds were also evaluated in a parallel assay for cytotoxicity in uninfected PBM cells.

HIV-1 isolate LAI M184V = assay: Anti-HIV efficacy in PBMC, isolate LAI M184V; assay type: cell-based; details: for Phenotype for LAI M184V: resistance phenotype comparison, Table 5
Protocol: as §1
(§4) Each of the three test compounds were tested for efficacy against the various strains of HIV-1. Anti-HIV efficacy was evaluated in PBMC, reverse transcriptase activity was tested in a microtiter plate-based reverse transciptase assay (Buckeit, et al., AIDS Research and Human Retroviruses, 7:295-302, 1991), MTS staining was used for determining cell viability.
as §3

HIV-1 isolate H112-2 = assay: Anti-HIV efficacy in PBMC, isolate H112-2; assay type: cell-based; details: for IC50: Human immunodeficiency virus 1, PBMC, isolate H112-2 (pre-treatment), read-out: Drug (IC50)
Protocol: as §1, §2, §3

HIV-1 isolate 5705-72 = assay: Anti-HIV efficacy in PBMC, isolate 5705-72; assay type: cell-based; details: for IC50: Human immunodeficiency virus 1, PBMC, isolate 5705-72 (post-treatment), read-out: Drug (IC50)
Protocol: as §1, §4, §3

HIV-1 isolate 488-0 = assay: Anti-HIV efficacy in PBMC, isolate 488-0; assay type: cell-based; details: for IC50: Human immunodeficiency virus 1, PBMC, isolate 488-0 (pre-treatment), read-out: Drug (IC50)
Protocol: as §1, §2, §3

HIV-1 isolate G910-6 = assay: Anti-HIV efficacy in PBMC, isolate G910-6; assay type: cell-based; details: for IC50: Human immunodeficiency virus 1, PBMC, isolate G910-6 (post-treatment), read-out: Drug (IC50); for Phenotype for G910-6: resistance phenotype comparison, Table 5
Protocol: as §1, §4, §3

HIV-1 isolate 488-101 = assay: microbe, parasite or virus in culture; assay type: cell-based; details: for IC50: Human immunodeficiency virus 1, PBMC, isolate 488-101 (post-treatment), read-out: Drug (IC50); for Phenotype for 488-101: resistance phenotype comparison, Table 5
Protocol: as §1, §4, §3

HIV-1 isolate 5705-0 = assay: Anti-HIV efficacy in PBMC, isolate 5705-0; assay type: cell-based; details: for IC50: Human immunodeficiency virus 1, PBMC, isolate 5705-0 (pre-treatment), read-out: Drug (IC50)
Protocol: as §1, §2, §3

[1] = test system: panel of HIV-1 3TC/AZT drug sensitive/resistant matched pair virus isolates; assay: Standardized PBMC cell-based anti-HIV assay, matched pair panel; details: AZT and/or 3TC resistant isolates
Protocol: as §4, §3

[2] = test system: mutations 65R, 74V, 184V, and 115F in the RT gene; details: mutants harboring 2 or 3 of these mutations; cited from earlier work

SMILES	IC50 (HIV-1 isolate LAI)	IC50 (HIV-1 isolate H112-2)	IC50 (HIV-1 isolate 5705-72)	IC50 (HIV-1 isolate 488-0)	IC50 (HIV-1 isolate G910-6)	Phenotype for G910-6 (HIV-1 isolate G910-6)	IC50 (HIV-1 isolate 488-101)	Phenotype for 488-101 (HIV-1 isolate 488-101)	IC50 (HIV-1 isolate 5705-0)	Phenotype for LAI M184V (HIV-1 isolate LAI M184V)	Cross-resistance / resistance profile [1]	also measured
Nc1ccn([C@@H]2CS[C@H](CO)O2)c(=O)n1 [3TC, Lamivudine]	10 nM	170 nM	> 50000 nM	30 to 47 nM	320 nM	Sensitive (<5 fold resistance, Sensitive)	40600 nM	Resistant (>5 fold resistance, Resistant)	4 to 9 nM			IC50 (HIV-1 isolate LAI M184V; Human immunodeficiency virus 1, PBMC, isolate LAI-M184V, read-out: Drug (IC50)): > 50000 nM
Cc1cn([C@H]2C[C@H](N=[N+]=[N-])[C@@H](CO)O2)c(=O)[nH]c1=O [AZT, 3′-Azido-3′-deoxythymidine]	20 nM	10 nM	30 nM	0.3 to 0.6 nM	620 nM	Resistant (>5 fold resistance, Resistant)	80 nM		3 to 8 nM	Sensitive (<5 fold resistance, Sensitive)		Phenotype (HIV-1 isolate LAI; Table 3): Sensitive; Phenotype (HIV-1 isolate LAI M184V; isolate LAI-M184V, Table 3): Sensitive; Phenotype (HIV-1 isolate H112-2; isolate H112-2, Table 3): Sensitive; Phenotype (HIV-1 isolate 488-0; isolate 488-0, Table 3): Sensitive; Phenotype (HIV-1 isolate G910-6; isolate G910-6, Table 3): Resistant; Phenotype (HIV-1 isolate 488-101; isolate 488-101, Table 3): Resistant; Phenotype (HIV-1 isolate 5705-0; isolate 5705-0, Table 3): Sensitive
Nc1nc(N)c2ncn(C3COC(CO)O3)c2n1 [DAPD, beta-D-9-(5-hydroxymethyl-dioxolanyl-2-yl)-2,4-diamino-purine]						Sensitive (<5 fold resistance, Sensitive)		Sensitive (<5 fold resistance, Sensitive)		Sensitive (<5 fold resistance, Sensitive)	resistance profile similar to AZT	Resistance phenotype (HIV-1 isolate 5705-72; resistance phenotype comparison, Table 5): Resistant (>5 fold resistance, Resistant)
Nc1nc2c(ncn2[C@H]2CO[C@@H](CO)O2)c(=O)[nH]1 [DXG, beta-D-9-(5-hydroxymethyl-dioxolanyl-2-yl)guanine]						Sensitive (<5 fold resistance, Sensitive)		Sensitive (<5 fold resistance, Sensitive)		Resistant (>5 fold resistance, Resistant)	resistance profile similar to that of 3TC	
Nc1nc(NC2CC2)c2ncn([C@H]3C=C[C@@H](CO)C3)c2n1 [abacavir, Abacavir]												resistance to the drug [2]: approximately 10 fold
